The conditions of data set [1]: CLP model mice, hydrogen gas treatment group; comparison value 74 mg/dL. The method, then:
(§1) Cecal ligation and puncture (CLP) or sham surgery were performed on 9-week-old C57BL/6 male mice. Then, the CLP model mice were forced to inhale a 7% hydrogen gas. The inhalation time were two hours per day for one group and continuous 24 hours for the other group. The mice were housed in a chamber in which the concentration of a hydrogen gas could be maintained by a constant supply of a hydrogen gas from a gas generating apparatus (MHG-2000α manufactured by MiZ Company Limited), and forced to inhale the hydrogen gas therein. The mice in the control group were forced to inhale air not containing hydrogen. Mice were bred under a hydrogen gas atmosphere for one week, and the survival rate was evaluated. The serum inflammatory cytokine levels were evaluated using a Quantikine ELISA Kit (INFO) at 24 hours after CLP. The liver, the intestine, and the lung of mice were evaluated by RNA sequencing after inhalation of a hydrogen gas. Data were analyzed using Ingenuity Pathways Analysis (IPA: Qiagen Inc.). Additionally, expression of inflammatory genes in the intestine was investigated by RT-PCR.

Another data set concerns IL-6. The note with it: 24 hours after CLP. As for the experimental part: as §1
For a further data set, the system named is TNF-α. Conditions: 24 hours after CLP. As for the experimental part: as §1
The subject of data set [2] is cecal ligation and puncture (CLP) model mice. The method, then: as §1
Data set [3] deals with genes related to glycolysis and gluconeogenesis; inflammatory signal transduction pathways. As for the experimental part: as §1
For data set [4] the following is noted: after inhalation of a hydrogen gas.
For data set [5] the following is noted: room temperature, normal pressure; cited from earlier work.

Each structure is given as a SMILES string. Read-outs that look alike come from different tables or passages of the source.

Take `[HH]` [hydrogen gas, molecular hydrogen]: in data set [1], the blood glucose level is reported as 127 mg/dL. Moreover, the “serum IL-6 level” value in the data set on IL-6 is on record as “attenuated”. In the data set on TNF-α, the “serum TNF-α level” value is reported as “attenuated”. The survival rate in data set [2] (7% hydrogen gas, continuous inhalation over 24 hours for 7 days, control 40%, p<0.05, n=20 vs. 20) is given as 75%; in data set [2] (continuous inhalation time increased to five hours, 12 hours, and 24 hours), “improved”. For the same molecule, the figures for the “survival rate vs control” value in data set [2] (continuous inhalation time per day one hour) and in data set [2] (continuous inhalation time two hours) were “no difference from control was observed” and “differences started to be observed”, respectively. Besides, in data set [3] (hydrogen inhalation time two hours or longer per day), the “change in levels of genes vs control” value was “differences started to be observed”. The “inflammatory signal transduction pathways (acute phase response signaling, STAT pathway), z-scores” value in data set [3] (liver and intestine of the CLP model at 24 hours) was “inactive”. Also, in data set [3] (liver, GO and pathway enrichment analysis), the “genes related to glycolysis and gluconeogenesis” value was “upregulation”. Besides, the “time for hydrogen to reach the liver” value in data set [4] was at least 10 min. In data set [4], the “time for hydrogen to reach the lung” value is recorded as “rapidly”. For the same molecule, the “concentration dissolved in water (solubility)” value in data set [5] was “approximately 1.6 ppm”.

The values above are taken from patent publication US20210275577A1, “MOLECULAR HYDROGEN-CONTAINING COMPOSITION FOR REGULATING INTRACELLULAR SIGNAL TRANSDUCTION” (MiZ Company Limited, priority 2020, published 2021).
